The test system of test [1] is HL-60. Briefly: Cytotoxicity against human HL60 cells assessed as inhibition of cell growth at 10 uM by MTT method. Particulars: read-out: GI. Format: functional.
The test system of test [2] is P388. Briefly: Cytotoxicity against mouse P388 cells assessed as inhibition of cell growth at 10 uM by MTT method. Type of test: functional. Particulars: read-out: GI.
The test system of test [3] is A549. In words: Cytotoxicity against human A549 cells assessed as inhibition of cell growth at 10 uM by SRB protein staining method. To be noted: read-out: GI. Type of test: functional.
In test [4] the test system is A549. In words: Cytotoxicity against human A549 cells by SRB protein staining method. Type of test: functional, cell-based. On the technique in general: Sulforhodamine B stains cellular protein and so reports cell mass.
In test [5] the test system is HL-60. Briefly: Cytotoxicity against human HL60 cells by MTT method. Format: functional, cell-based.
Test [6] concerns P388. In words: Cytotoxicity against mouse P388 cells by MTT method. Type of test: functional, cell-based.

Structures are written as SMILES. pIC50: −log10 of the molar value.

In the case of `C=C1[C@@H]([C@@]2(C)C=CC(=O)O[C@@](C)(COC(C)=O)[C@@H]2CC(=O)OC)[C@@H](OC=O)[C@H](OC(=O)C(O)C(C)C)[C@@]2(C)[C@H](c3ccoc3)[C@@H](OC(=O)C(OC(C)=O)C(C)C)[C@H]3O[C@]132` (some centres undefined), the inhibition of growth at 10 µM with HL-60 [1], in the test on P388 [2] and with A549 [3] was less than 50% throughout.
For `CC(=O)O[C@H]1CC(=O)O[C@@]2(C)CO[C@H]3[C@@H](O)[C@]4(C)[C@H](CC[C@@]5(C)[C@H](c6ccoc6)OC(=O)[C@H]6O[C@@]645)[C@]1(C)[C@@H]32`, the inhibition of growth at 10 µM in the test on HL-60 [1], with P388 [2] and with A549 [3] was less than 50% in each case.
Turning to `CC(=O)O[C@H]1CC(=O)O[C@@]2(C)CO[C@H]3[C@@H](OC(=O)C(O)C(C)C)[C@]4(C)[C@H](CC[C@@]5(C)[C@H](c6ccoc6)OC(=O)[C@H]6O[C@@]645)[C@]1(C)[C@@H]32` (some centres undefined), the inhibition of growth at 10 µM in the test with HL-60 [1], in the test with P388 [2] and in the test on A549 [3] was less than 50% in each case.
As to `COC(=O)C[C@H](OC(C)=O)[C@]1(C)[C@H]2CC[C@@]3(C)[C@H](c4ccoc4)OC(=O)[C@H]4O[C@]43[C@]2(C)[C@H](OC(C)=O)[C@H](OC(C)=O)[C@H]1C(C)(C)O`, the inhibition of growth at 10 µM in the test with HL-60 [1], with P388 [2] and with A549 [3] was less than 50% each time.
Consider `C=C(C)[C@@H]1C[C@@H](O)[C@@]2(C)C3=C[C@H](OC(C)=O)[C@@H](c4ccoc4)[C@]3(C)CC[C@@H]2[C@@]1(C)[C@@H](O)CC(=O)OC`, for which the inhibition of growth at 10 µM in the test on HL-60 [1], in the test with P388 [2] and in the test with A549 [3] was less than 50% in each case.
As for `CC(=O)O[C@@H]1C[C@H]2C(C)(C)[C@H](O)CC[C@]2(C)[C@H]2CC[C@]3(C)C(=CC[C@H]3[C@@]3(O)COC(=O)C3)[C@@]21C`, the inhibition of growth at 10 µM with HL-60 [1], in the test on P388 [2] and in the test on A549 [3] was less than 50% throughout.
Regarding `CC1(C)C(=O)CC[C@]2(C)[C@H]3CC[C@]4(C)C(=CC[C@H]4C4=CC(=O)OC4)[C@]3(C)[C@H](OC(=O)c3ccccc3)C[C@@H]12`, the inhibition of growth at 10 µM with HL-60 [1], in the test with P388 [2] and in the test with A549 [3] was less than 50% throughout.
Broadly, the pIC50 is −log10 of the IC50, conventionally taken in molar units. Lower therefore signals a high IC50. In the test on A549 [4], `C=C1[C@@H]([C@@]2(C)[C@@H](OC(C)=O)CC(=O)O[C@@](C)(COC(C)=O)[C@@H]2CC(=O)OC)[C@@H](C(=O)O)[C@H](OC(=O)C(O)C(C)C)[C@@]2(C)[C@H](c3ccoc3)C(OC(=O)C(C)CC)[C@H]3O[C@]132` (some centres undefined) had a negative logarithm of the IC50 (pIC50) of 5.68.
With `C[C@@H]([C@@H]1O[C@H]1[C@H](O)C(C)(C)O)[C@@H]1CC[C@]2(C)C3=CC[C@H]4C(C)(C)C(=O)CC[C@]4(C)[C@H]3CC[C@@]12C`, the inhibition of growth at 10 µM in the test on HL-60 [1] and in the test on A549 [3] was less than 50% in each case.
For `C[C@@H]([C@@H]1O[C@H]1[C@@H](O)C(C)(C)O)[C@@H]1CC[C@]2(C)C3=CC[C@H]4C(C)(C)C(=O)CC[C@]4(C)[C@H]3CC[C@@]12C`, the inhibition of growth at 10 µM in the test with HL-60 [1], with P388 [2] and in the test with A549 [3] was less than 50% each time.
With `COc1cccc2c1C(=O)c1c(O)c3c(c(O)c1C2=O)C[C@@](O)(C(=O)CO)C[C@@H]3O[C@H]1C[C@H](N)[C@H](O)[C@H](C)O1` [DOXORUBICIN], the pIC50 is 7.24 with HL-60 [5] and 6.70 with P388 [6].

Source of the values: ChEMBL document CHEMBL3580598, “Limonoids and Triterpenoids from Dysoxylum mollissimum var. glaberrimum” (J Nat Prod, 2015).
